# According to patent publication US20250250245A1, “TRIMETAZIDINE SALTS” (LES LABORATOIRES SERVIER, priority 2021, published 2025):
# Where a name gives a salt, the structure may show the parent alone.
# Assay: Trimetazidine nitrosamine formation in aqueous sodium nitrite solution (LC/MS dosage)
# Format: physicochemical
# Settings: 6 mg/mL in trimetazidine equivalent (low solubility), 40° C. for 22 hours
# Procedure: In order to model the formation of trimetazidine nitrosamine during the formulation process, an aqueous solution of sodium nitrite was added to the trimetazidine salt. The sodium nitrite mimics the presence of nitrites in water and/or excipients during a drug product manufacturing process.
# The trimetazidine salt, in an amount corresponding to 600 mg trimetazidine, was placed in 2 mL volumetric flask. […]
# The solution was stirred at 40° C. for 22 hours. The trimetazidine nitrosamine dosage was performed by LC/MS.
row,Compound,Trimetazidine nitrosamine content [ppm]
1,COc1ccc(CN2CCNCC2)c(OC)c1OC.O=C(O)C(=O)O.O=C(O)C(=O)O [Comparative Example D],83.1

# Same assay, conditions: 30 mg/mL in trimetazidine equivalent (low solubility), 40° C. for 22 hours
row,Compound,Trimetazidine nitrosamine content [ppm]
1,COc1ccc(CN2CCNCC2)c(OC)c1OC.O=C(O)C(=O)O [Comparative Example C],104.0

# Same assay, conditions: 300 mg/mL in trimetazidine equivalent, stirred at 40° C. for 22 hours
row,Compound,Trimetazidine nitrosamine content [ppm]
1,Trimetazidine Hemitartrate [Example 6],0.6
2,"COc1ccc(CN2CCNCC2)c(OC)c1OC.COc1ccc(CN2CCNCC2)c(OC)c1OC.O=C(O)CCCCC(=O)O [Example 1, Trimetazidine Hemiadipate]",0.7
3,trimetazidine hemioxalate [Comparative Example B],1.1
4,COc1ccc(CN2CCNCC2)c(OC)c1OC.O=C(O)C=CC(=O)O [Comparative Example G],31.9
5,Trimetazidine Hemimalate [Example 3],0.7
6,Trimetazidine Hemiphosphate [Example 7],0.6
7,Trimetazidine Hemifumarate [Example 5],0.1
8,"COc1ccc(CN2CCNCC2)c(OC)c1OC [Comparative Example A, Trimetazidine dihydrochloride]",126.0
9,Trimetazidine Hemisulfate [Example 4],0.6
10,Trimetazidine Hemisuccinate [Example 2],0.5
11,COc1ccc(CN2CCNCC2)c(OC)c1OC.O=C(O)C=CC(=O)O [Comparative Example F],121.2
12,COc1ccc(CN2CCNCC2)c(OC)c1OC.Cl.Cl [Comparative Example E],22.0

# Assay: Solubility of the trimetazidine salts in the aqueous test solution
# Format: physicochemical
# Settings: 300 mg/mL in trimetazidine equivalent not used
row,Compound,Solubility
1,COc1ccc(CN2CCNCC2)c(OC)c1OC.O=C(O)C(=O)O.O=C(O)C(=O)O [Comparative Example D],low solubilities
2,COc1ccc(CN2CCNCC2)c(OC)c1OC.O=C(O)C(=O)O [Comparative Example C],low solubilities
